Reference: US8952024B2, “Herbicidal pyrimidone derivatives” (E I du Pont de Nemours and Company, priority 2009, dated 2015)

Tests used:
Assay type in all cases: in vivo
[1] = system: barnyardgrass (Echinochloa crus-galli); assay: Test B flooded paddy test; details: for Plant response rating, Flood, Barnyardgrass: 250 g ai/ha, flooded paddy test, visual rating on 0 to 100 scale (0 no effect, 100 complete control) after 13 to 15 days; for Plant response rating, Barnyardgrass: Flood (flooded paddy test), 13 to 15 days
In short: (§1)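 Plants were grown to the 2-leaf stage, then pots were flooded to 3 cm above the soil and compounds were applied directly into the paddy water. That depth was held throughout. After 13 to 15 days in a greenhouse, injury was visually rated against controls on a 0–100 scale.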

[2] = system: ducksalad (Heteranthera limosa); assay: Test B flooded paddy test; details: for Plant response rating, Flood, Ducksalad: 250 g ai/ha, flooded paddy test, visual rating on 0 to 100 scale (0 no effect, 100 complete control) after 13 to 15 days; for Plant response rating, Ducksalad: Flood (flooded paddy test), 13 to 15 days
In short: as §1

[3] = system: umbrella sedge (Cyperus difformis); assay: Test B flooded paddy test; details: for Plant response rating, Flood, Sedge, Umbrella: 250 g ai/ha, flooded paddy test, visual rating on 0 to 100 scale (0 no effect, 100 complete control) after 13 to 15 days; for Plant response rating, Sedge, Umbrella: Flood (flooded paddy test), 13 to 15 days
In short: as §1

rice (Oryza sativa) = assay: Test B flooded paddy test; details: for Plant response rating, Flood, Rice: 250 g ai/ha, flooded paddy test, visual rating on 0 to 100 scale (0 no effect, 100 complete control) after 13 to 15 days; for Plant response rating, Rice: Flood (flooded paddy test), 13 to 15 days
In short: as §1

[4] = system: wheat (Triticum aestivum); assay: Test A pre-/postemergence plant response
In short: (§2)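 Both pre- and postemergence treatments are applied simultaneously, using chemicals formulated in a non-phytotoxic solvent mixture with surfactant. Postemergence plants are 2–10 cm high with one to two leaves. After approximately ten days in a greenhouse, injury is scored visually from 0 (none) to 100 (complete control) relative to untreated plants.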

[5] = system: barnyardgrass (Echinochloa crus-galli); assay: Test A pre-/postemergence plant response
In short: as §2

corn (Zea mays) = assay: Test A pre-/postemergence plant response
In short: as §2

[6] = system: morningglory (Ipomoea spp.); assay: Test A pre-/postemergence plant response
In short: as §2

[7] = system: velvetleaf (Abutilon theophrasti); assay: Test A pre-/postemergence plant response
In short: as §2

[8] = system: giant foxtail (Setaria faberii); assay: Test A pre-/postemergence plant response
In short: as §2

[9] = system: pigweed (Amaranthus retroflexus); assay: Test A pre-/postemergence plant response
In short: as §2

[10] = system: large crabgrass (Digitaria sanguinalis); assay: Test A pre-/postemergence plant response
In short: as §2

[11] = 62 g ai/ha, scale of 0 to 100 where 0 is no effect and 100 is complete control
[12] = Postemergence, 125 g ai/ha, visual injury, 0 to 100 scale (0 no effect, 100 complete control), approx. ten days
[13] = Postemergence, 500 g ai/ha, 0 to 100 scale, 0 = no effect, 100 = complete control, approx. ten days
[14] = Preemergence, 125 g ai/ha, 0 to 100 scale, 0 = no effect, 100 = complete control
[15] = Preemergence, 500 g ai/ha, visual injury, 0 to 100 scale (0 no effect, 100 complete control), approx. ten days
[16] = 31 g ai/ha, scale of 0 to 100 where 0 is no effect and 100 is complete control
[17] = 125 g ai/ha, scale 0 to 100, 0 is no effect, 100 is complete control

Cc1cccc(Cl)c1-n1c(-c2ccccc2)ncc(C(=O)C2=C(O)CCCC2=O)c1=O [Compound 46]
Plant response rating, Flood, Barnyardgrass [1]: 0 | Plant response rating, Barnyardgrass [1, 11]: 0 | Plant response rating, Flood, Ducksalad [2]: 20 | Plant response rating, Ducksalad [2, 11]: 20 | Plant response rating, Flood, Sedge, Umbrella [3]: 65 | Plant response rating, Sedge, Umbrella [3, 11]: 45 | Plant response rating, Flood, Rice (rice (Oryza sativa)): 10 | Plant response rating, Rice (rice (Oryza sativa); [11]): 10 | Wheat plant response rating [4, 12]: 0 | Plant response rating, Wheat [4, 13]: 0 | Plant response rating, Wheat [4, 14]: 0 | Plant response rating, Wheat [4, 15]: 20 | Barnyardgrass plant response rating [5, 12]: 80 | Plant response rating, Barnyardgrass [5, 13]: 90 | Plant response rating, Barnyardgrass [5, 14]: 0 | Plant response rating, Barnyardgrass [5, 15]: 50 | Corn plant response rating (corn (Zea mays); [12]): 0 | Plant response rating, Corn (corn (Zea mays); [13]): 20 | Plant response rating, Corn (corn (Zea mays); [14]): 0 | Plant response rating, Corn (corn (Zea mays); [15]): 0 | Morningglory plant response rating [6, 12]: 60 | Plant response rating, Morningglory [6, 13]: 70 | Plant response rating, Morningglory [6, 14]: 10 | Plant response rating, Morningglory [6, 15]: 70 | Velvetleaf plant response rating [7, 12]: 100 | Plant response rating, Velvetleaf [7, 13]: 100 | Plant response rating, Velvetleaf [7, 14]: 40 | Plant response rating, Velvetleaf [7, 15]: 70 | Foxtail, Giant plant response rating [8, 12]: 60 | Plant response rating, Foxtail, Giant [8, 13]: 90 | Plant response rating, Foxtail, Giant [8, 14]: 0 | Plant response rating, Foxtail, Giant [8, 15]: 60 | Pigweed plant response rating [9, 12]: 80 | Plant response rating, Pigweed [9, 13]: 100 | Plant response rating, Pigweed [9, 14]: 60 | Plant response rating, Pigweed [9, 15]: 90 | Crabgrass, Large plant response rating [10, 12]: 70 | Plant response rating, Crabgrass, Large [10, 13]: 90 | Plant response rating, Crabgrass, Large [10, 14]: 30 | Plant response rating, Crabgrass, Large [10, 15]: 80

Cc1cc(-n2c(-c3ccccc3)ncc(C(=O)C3=C(O)CCCC3=O)c2=O)ccc1F [Compound 53]
Plant response rating, Flood, Barnyardgrass [1]: 75 | Plant response rating, Barnyardgrass [1, 16]: 20 | Plant response rating, Barnyardgrass [1, 11]: 40 | Plant response rating, Barnyardgrass [1, 17]: 55 | Plant response rating, Flood, Ducksalad [2]: 75 | Plant response rating, Ducksalad [2, 16]: 40 | Plant response rating, Ducksalad [2, 11]: 65 | Plant response rating, Ducksalad [2, 17]: 75 | Plant response rating, Flood, Sedge, Umbrella [3]: 90 | Plant response rating, Sedge, Umbrella [3, 16]: 40 | Plant response rating, Sedge, Umbrella [3, 11]: 85 | Plant response rating, Sedge, Umbrella [3, 17]: 90 | Plant response rating, Flood, Rice (rice (Oryza sativa)): 85 | Plant response rating, Rice (rice (Oryza sativa); [16]): 15 | Plant response rating, Rice (rice (Oryza sativa); [11]): 20 | Plant response rating, Rice (rice (Oryza sativa); [17]): 60 | Wheat plant response rating [4, 12]: 30 | Plant response rating, Wheat [4, 13]: 50 | Plant response rating, Wheat [4, 14]: 0 | Plant response rating, Wheat [4, 15]: 10 | Barnyardgrass plant response rating [5, 12]: 90 | Plant response rating, Barnyardgrass [5, 13]: 100 | Plant response rating, Barnyardgrass [5, 14]: 40 | Plant response rating, Barnyardgrass [5, 15]: 100 | Corn plant response rating (corn (Zea mays); [12]): 0 | Plant response rating, Corn (corn (Zea mays); [13]): 80 | Plant response rating, Corn (corn (Zea mays); [14]): 0 | Plant response rating, Corn (corn (Zea mays); [15]): 0 | Morningglory plant response rating [6, 12]: 100 | Plant response rating, Morningglory [6, 13]: 100 | Plant response rating, Morningglory [6, 14]: 80 | Plant response rating, Morningglory [6, 15]: 90 | Velvetleaf plant response rating [7, 12]: 100 | Plant response rating, Velvetleaf [7, 13]: 100 | Plant response rating, Velvetleaf [7, 14]: 80 | Plant response rating, Velvetleaf [7, 15]: 90 | Foxtail, Giant plant response rating [8, 12]: 90 | Plant response rating, Foxtail, Giant [8, 13]: 90 | Plant response rating, Foxtail, Giant [8, 14]: 70 | Plant response rating, Foxtail, Giant [8, 15]: 100 | Pigweed plant response rating [9, 12]: 100 | Plant response rating, Pigweed [9, 13]: 100 | Plant response rating, Pigweed [9, 14]: 90 | Plant response rating, Pigweed [9, 15]: 100 | Crabgrass, Large plant response rating [10, 12]: 90 | Plant response rating, Crabgrass, Large [10, 13]: 100 | Plant response rating, Crabgrass, Large [10, 14]: 90 | Plant response rating, Crabgrass, Large [10, 15]: 100

Cn1c(-c2ccccc2)ncc(C(=O)C2=C(O)CCCC2=O)c1=O [Compound 55]
Plant response rating, Flood, Barnyardgrass [1]: 20 | Plant response rating, Barnyardgrass [1, 16]: 0 | Plant response rating, Barnyardgrass [1, 11]: 20 | Plant response rating, Barnyardgrass [1, 17]: 20 | Plant response rating, Flood, Ducksalad [2]: 50 | Plant response rating, Ducksalad [2, 16]: 0 | Plant response rating, Ducksalad [2, 11]: 0 | Plant response rating, Ducksalad [2, 17]: 0 | Plant response rating, Flood, Sedge, Umbrella [3]: 60 | Plant response rating, Sedge, Umbrella [3, 16]: 0 | Plant response rating, Sedge, Umbrella [3, 11]: 30 | Plant response rating, Sedge, Umbrella [3, 17]: 40 | Plant response rating, Flood, Rice (rice (Oryza sativa)): 25 | Plant response rating, Rice (rice (Oryza sativa); [16]): 0 | Plant response rating, Rice (rice (Oryza sativa); [11]): 10 | Plant response rating, Rice (rice (Oryza sativa); [17]): 15 | Wheat plant response rating [4, 12]: 0 | Plant response rating, Wheat [4, 13]: 0 | Plant response rating, Wheat [4, 14]: 0 | Plant response rating, Wheat [4, 15]: 0 | Barnyardgrass plant response rating [5, 12]: 50 | Plant response rating, Barnyardgrass [5, 13]: 70 | Plant response rating, Barnyardgrass [5, 14]: 0 | Plant response rating, Barnyardgrass [5, 15]: 10 | Corn plant response rating (corn (Zea mays); [12]): 0 | Plant response rating, Corn (corn (Zea mays); [13]): 10 | Plant response rating, Corn (corn (Zea mays); [14]): 0 | Plant response rating, Corn (corn (Zea mays); [15]): 0 | Morningglory plant response rating [6, 12]: 90 | Plant response rating, Morningglory [6, 13]: 90 | Plant response rating, Morningglory [6, 14]: 30 | Plant response rating, Morningglory [6, 15]: 60 | Velvetleaf plant response rating [7, 12]: 100 | Plant response rating, Velvetleaf [7, 13]: 100 | Plant response rating, Velvetleaf [7, 14]: 60 | Plant response rating, Velvetleaf [7, 15]: 60 | Foxtail, Giant plant response rating [8, 12]: 20 | Plant response rating, Foxtail, Giant [8, 13]: 60 | Plant response rating, Foxtail, Giant [8, 14]: 0 | Plant response rating, Foxtail, Giant [8, 15]: 0 | Pigweed plant response rating [9, 12]: 90 | Plant response rating, Pigweed [9, 13]: 100 | Plant response rating, Pigweed [9, 14]: 50 | Plant response rating, Pigweed [9, 15]: 100 | Crabgrass, Large plant response rating [10, 12]: 70 | Plant response rating, Crabgrass, Large [10, 13]: 90 | Plant response rating, Crabgrass, Large [10, 14]: 0 | Plant response rating, Crabgrass, Large [10, 15]: 50

O=C1CCCC(O)=C1C(=O)c1cnc(-c2ccsc2)n(-c2ccccc2)c1=O [Compound 56]
Plant response rating, Flood, Barnyardgrass [1]: 35 | Plant response rating, Barnyardgrass [1, 16]: 10 | Plant response rating, Barnyardgrass [1, 11]: 15 | Plant response rating, Barnyardgrass [1, 17]: 20 | Plant response rating, Flood, Ducksalad [2]: 50 | Plant response rating, Ducksalad [2, 16]: 0 | Plant response rating, Ducksalad [2, 11]: 20 | Plant response rating, Ducksalad [2, 17]: 40 | Plant response rating, Flood, Sedge, Umbrella [3]: 75 | Plant response rating, Sedge, Umbrella [3, 16]: 30 | Plant response rating, Sedge, Umbrella [3, 11]: 40 | Plant response rating, Sedge, Umbrella [3, 17]: 60 | Plant response rating, Flood, Rice (rice (Oryza sativa)): 20 | Plant response rating, Rice (rice (Oryza sativa); [16]): 0 | Plant response rating, Rice (rice (Oryza sativa); [11]): 0 | Plant response rating, Rice (rice (Oryza sativa); [17]): 15 | Wheat plant response rating [4, 12]: 0 | Plant response rating, Wheat [4, 13]: 0 | Plant response rating, Wheat [4, 14]: 0 | Plant response rating, Wheat [4, 15]: 0 | Barnyardgrass plant response rating [5, 12]: 90 | Plant response rating, Barnyardgrass [5, 13]: 90 | Plant response rating, Barnyardgrass [5, 14]: 50 | Plant response rating, Barnyardgrass [5, 15]: 90 | Corn plant response rating (corn (Zea mays); [12]): 10 | Plant response rating, Corn (corn (Zea mays); [13]): 50 | Plant response rating, Corn (corn (Zea mays); [14]): 0 | Plant response rating, Corn (corn (Zea mays); [15]): 0 | Morningglory plant response rating [6, 12]: 90 | Plant response rating, Morningglory [6, 13]: 100 | Plant response rating, Morningglory [6, 14]: 50 | Plant response rating, Morningglory [6, 15]: 90 | Velvetleaf plant response rating [7, 12]: 100 | Plant response rating, Velvetleaf [7, 13]: 100 | Plant response rating, Velvetleaf [7, 14]: 80 | Plant response rating, Velvetleaf [7, 15]: 100 | Foxtail, Giant plant response rating [8, 12]: 80 | Plant response rating, Foxtail, Giant [8, 13]: 90 | Plant response rating, Foxtail, Giant [8, 14]: 70 | Plant response rating, Foxtail, Giant [8, 15]: 90 | Pigweed plant response rating [9, 12]: 90 | Plant response rating, Pigweed [9, 13]: 100 | Plant response rating, Pigweed [9, 14]: 90 | Plant response rating, Pigweed [9, 15]: 100 | Crabgrass, Large plant response rating [10, 12]: 80 | Plant response rating, Crabgrass, Large [10, 13]: 90 | Plant response rating, Crabgrass, Large [10, 14]: 80 | Plant response rating, Crabgrass, Large [10, 15]: 90
